# Source: US9241928B2, “Antimicrobial compounds” (The General Hospital Corporation, priority 2009, dated 2016)
# How the values were obtained:
# [1] = tested on: C. elegans infected with E. faecalis; experiment: Dose response time courses in the C. elegans-E. faecalis infection assay; format: in vivo, Caenorhabditis elegans; conditions: Effective Concentration: survival significantly different from mock-treated, p-value <0.05, logrank; read-out: EC
# Method: glp-4(bn2); sek-1 (km4) mutant worms were grown to gravid adult stage. 1,000 worms at the L1 stage were grown for 5.2 days at 15° C. on 9-cm plates of SK agar media spread with a lawn of E. coli strain HB101. Embryos from the gravid adults were isolated by a previously described hypochlorite method (see Tan et al., (1999) Proc. Natl. Acad. Sci. USA 96, 715-720) and hatched at 15° C. for 2 days. Approximately 4,500 of the Ll hatchlings were grown on each 9-cm plate of SK-NS agar (SK media with 62.5 U/ml nystatin and 100 μg/ml streptomycin) and with lawns of E. coli HB101. These worms were grown at 25° C. for 52 hours to generate sterile, young adults.
# A culture of E. faecalis MMH594 was grown in BHI broth (BD Difco) with 80 μg/ml kanamycin at 37° C. for 6 hours and 100 μl of the culture were spread onto each 9-cm plate of BHI agar containing 80 μg/mlkanamycin. Lawns of E. faecalis were grown at 25° C. for 16 hours and transferred to 15° C. for 8 hours.
# Sterile adult worms were resuspended in M9 buffer and washed twice with M9 in a 1:10 ratio to remove E. coli. 8,000 worms were pipetted onto each lawn of E. faecalis and incubated 15 hours at 15° C. After infection, the worms were resuspended in M9 and used as described below. 384-well plates (Corning #3712) were filled with 55 μl media (see below) using a Thermo Scientific MULTIDROP Combi reagent dispenser. 0.3 μl of a candidate compound in DSMO were pin transferred into each well using a CyBio CYBI-Well vario transfer system. The plates were agitated using an Eppendorf MIXMATE at 1,800 rpm for 15 seconds. Using the Union Biometrica Complex Object Parametric Analyzer and Sorter (COPAS) BIOSORT worm sorter according to manufacturer's protocols, 15 of the infected worms were transferred to each well in a total volume of approximately 15 μl. Total volume per well is 70 μl/well with a final composition of the media being 20% BHI, […], 80 μg/ml kanamycin, 62.5 U/ml nystatin, 1% DMSO, and 19% sheath solution (Union Biometrica Part #300-5101-000). Plates were vortexed for 5 seconds, centrifuged at 1000×g for 10 seconds, and sealed with gas permeable membranes (BREATHEASY Diversified). Plates were placed in a single layer on the top shelves in a 26.3° C. incubator at 85% relative humidity (RH) and incubated without agitation for 5 days.
# The dose dependence of certain antimicrobial compounds identified by the assay above were studied. These compounds were purchased in a larger amount from commercial sources. For each of these compounds, an infection assay was performed essentially as described above at different concentrations except that SYTOX staining was not used. Instead, bright-field images of the wells were acquired at daily time points and scored manually for worm survival by analyzing worm body positioning. […] All compounds used in this assays were confirmed for their identity and purity by liquid chromatography/mass spectrometry.
# [2] = tested on: MRSA infection in Caenorhabditis elegans; experiment: MRSA infection assay in C. elegans (liquid); format: in vivo; conditions: 6.25 and 12.5 μg/ml, 5 days
# Excerpt: To screen/test candidate compounds for their efficacy against Methicillin-resistant Staphylococcus aureus (MRSA) using Caenorhabditis elegans (C. elegans), a liquid high throughput screening assay was developed. In contrast to the Enterococcus faecalis infection assay, where worms are pre-infected with E. faecalis on agar prior to the start of the screening assay and then infected worms are transferred to microtiter plates using the COPAS BioSort robot, the infection of worms with MRSA occurred directly in the liquid medium. This liquid infection protocol with MRSA was developed because the COPAS BioSort, the large particle sorter used to dispense worms into multiwell plates, is a pressurized system that can generate aerosols. Because MRSA is a potentially dangerous pathogen for immune competent individuals, sorting MRSA-infected worms in the COPAS BioSort was deemed to be potentially hazardous.
# The MRSA infection assay was carried out by incubating C. elegans with three MRSA strains (i.e., USA100, USA400 and MW2) in 96 or 384-well microtiter plates and assessing whether worms were live or dead after a 5 day incubation.
# The MRSA infection assay was performed as follows: Worms were grown on agar using non-pathogenic E. coli as a food source until they reached the L4/young adult stage. A small volume of M9 buffer was added to the agar plates to float worms gently off the food source. The worms were then transferred into a large conical tube and washed 2 times by allowing worms to settle, aspirating the supernatant and adding fresh M9 buffer. 15 worms were then transferred using a COPAS BioSort large particle sorter into a 96-well plate containing […] of M9. […] After the worms were stained for 18 hours, images of the plates were acquired in bright field and red fluorescence channels using a Molecular Devices Discovery-1 or ImageXpress automated microscopy system. The total number of worms was counted in the bright field image and the number of dead animals are determined by positive SYTOX staining. […]
structure (smiles),measurement,setting,value
NNc1ccc2c(Cl)cc(Cl)c(O)c2n1 [Compound 11],minimal effective concentration,[1],0.2 µg/mL
same,survival of MRSA-infected worms (FIG. 4),[2],resulted in survival of MRSA-infected worms
